{"source": "patent US20230287234A1", "about": "“EDIBLE COATINGS FOR MAINTAINING FRUIT QUALITY” (The State of Israel, Ministry of Agriculture & Rural …, priority 2020, published 2023)", "key": {"avocado fruit": {"test_system": "avocado fruit", "assay": "Chilling injury of coated avocados stored at optimal (5° C.) and sub-optimal (2° C.) temperature", "format": "in vivo, 'Ettinger' avocado", "details": "21 d at 2° C. or 5° C., followed by one week at 22° C.; index 0-3", "protocol": "Three series of experiments were conducted. In each experiment the coated avocados were compared with uncoated fruits. The first experiment included seven edible coating formulations: carboxymethyl cellulose (CMC) (1% w/v), methylcellulose (MC) (1% w/v), hydroxypropyl methylcellulose (HPMC) (1% w/v), chitosan (1% w/v), alginate (1% w/v), and CMC with stearic acid (CMC+SA) (1% w/v and 0.6% w/v, respectively). The second, and third experiments included five edible coating formulations including phenylalanine, chitosan, CMC+SA, chitosan with phenylalanine, and CMC+SA with phenylalanine. In experiments 1-2 each treatment group included 8 avocados kept in cardboard boxes. In these experiments the fruit were stored for 14 and 12 days respectively at 20° C. (shelf-life conditions). In experiment 3 each treatment group included 14 avocados kept in cardboard boxes. The formulations of the edible coatings were applied to the fruit using paintbrushes. […] Internal browning: Internal browning was determined by cutting each fruit for half, lengthwise, at the end of each experiment, and assessing the visual appearance of the fruit Internal browning. Internal browning was evaluated on a 0-3 scale, in which 0=no internal browning and 3=sever internal browning. […] Blackening and pitting of the skin surface, as well as internal browning, were assessed to measure chilling injury. […]"}, "[1]": {"test_system": "stem-end rot and side rot of avocado fruit", "assay": "Effect of coatings with and without Phe on avocado decay (stem-end rot, side rot, total decay incidence)", "format": "in vivo, 'Fuerte' avocado", "details": "avocado stored 12 d at 22° C.", "protocol": "Three series of experiments were conducted. In each experiment the coated avocados were compared with uncoated fruits. The first experiment included seven edible coating formulations: carboxymethyl cellulose (CMC) (1% w/v), methylcellulose (MC) (1% w/v), hydroxypropyl methylcellulose (HPMC) (1% w/v), chitosan (1% w/v), alginate (1% w/v), and CMC with stearic acid (CMC+SA) (1% w/v and 0.6% w/v, respectively). The second, and third experiments included five edible coating formulations including phenylalanine, chitosan, CMC+SA, chitosan with phenylalanine, and CMC+SA with phenylalanine. In experiments 1-2 each treatment group included 8 avocados kept in cardboard boxes. In these experiments the fruit were stored for 14 and 12 days respectively at 20° C. (shelf-life conditions). In experiment 3 each treatment group included 14 avocados kept in cardboard boxes. […] Determination of decay incidences: Stem end rot (SER) was determined at the end of each experiment by assessing the visual appearance of the fruit stem end. SER was evaluated on a 0-3 scale, in which zero=no SER and three=severe SER. […] Side rot (Alternaria rot and anthracnose) was evaluated at the end of each experiment on a 0-3 scale, in which zero=no side rot and three=severe rot. […] Total decay incidences were determined by calculating the percentage of decayed fruit at the end of each experiment per treatment. […]"}}, "note": "Entries after “also recorded” stand apart in the source; their conditions may differ."}
{"smiles": "N[C@@H](Cc1ccccc1)C(=O)O", "note": "[Phe, phenylalanine]", "values": [{"measurement": "chilling injuries symptoms", "setting": "avocado fruit", "result": "reduced the appearance of chilling injuries"}, {"measurement": "decay incidence and severity (stem-end rot and side rot)", "setting": "[1]", "result": "some effect on reducing fruit decay incidence and severity; also recorded: increased its resistance to postharvest decay"}, {"measurement": "decay incidence and severity (stem-end rot and side rot)", "setting": "[1]; listed as Phenylalanine", "result": "did not show clear protection effects"}]}
